{
  "source": "patent US11724980B2",
  "about": "“Quinones having high capacity retention for use as electrolytes in aqueous redox flow batteries” (President and Fellows of Harvard College, priority 2018, dated 2023)",
  "key": {"physchem": {"test": "physchem", "type": "physicochemical", "details": "for solubility: thermodynamic from solid", "procedure": "Solubility limits of all DBEAQ isomers were measured in their oxidized forms by adding the potassium salt of DBEAQ (prepared by reacting DBEAQ with potassium hydroxide in water) until no further solid could be dissolved. After filtering the mixture through a PTFE 0.45 μm syringe filter, a saturated solution of DBEAQ in KOH was obtained. The saturated solution was then diluted by a known amount, and the concentration was evaluated by UV-Vis (Ocean Optics Flame-S Spectrometer Assembly) at 280 and 364 nm. […]\nThe solubility limit of DPPEAQ was measured in the oxidized form by adding the potassium salt of DPPEAQ (prepared by reacting DPPEAQ with potassium hydroxide in water) until no further solid could be dissolved. The mixture was adjusted to pH 9. After filtering the mixture through a PTFE 0.45 μm syringe filter, a saturated solution of DPPEAQ at pH 9 was obtained. The saturated solution was then diluted by a known amount while maintaining a pH of 9, and the concentration was evaluated by UV-Vis (Agilent Cary 60 spectrophotometer). The concentration was calculated according to a pre-calibrated absorbance-concentration curve of known concentrations of DPPEAQ at pH 9."}, "[1]": {"test": "Full cell cycling against potassium ferro/ferricyanide posolyte", "details": "from NMR and CV detection limits, full cell cycled 11 days", "procedure": "Full cell cycling (i.e. with a ferro/ferricyanide-based posolyte) was performed with the same flow cell hardware but with a FUMASEP® E-620(K) membrane due to its high conductivity and low permeability of DBEAQ and ferricyanide compared to other membranes. For studies at pH 14, the posolyte volume was 30 mL, and its composition, when assembled, was 0.20 M potassium ferrocyanide, 0.08 M potassium ferricyanide, and 1 M KOH. The negolyte was prepared by dissolving 0.1 M 2,6-DBEAQ in its oxidized form in 1.2 M KOH solution, resulting in 0.1 M 2,6-DBEAQ, 1.2 M K+, and 1 M OH^− electrolyte solution. For studies at pH 12, both electrolytes comprised 10 mM OH^−; the pH was checked both with a pH meter and pH paper and adjusted where necessary. For all full cell studies, the negolyte was assembled in the fully discharged state. Galvanostatic cycling was performed at ±0.1 A/cm^2 at room temperature, with voltage limits of 0.6 and 1.4 V. To obtain the polarization curves, the cell was first charged to the desired state of charge and then polarized via linear sweep voltammetry at a rate of 100 mV/s. […] Electrochemical impedance spectroscopy (EIS) was performed at SOCs between 10 and 100% at open-circuit potential with a 10 mV perturbation and with frequency ranging from 1 to 300,000 Hz. […]"}, "[2]": {"test": "Unbalanced compositionally-symmetric cell cycling", "procedure": "As a direct probe of the effect of O-alkylation of anthraquinone on its chemical stability, 2,6-DBEAQ was cycled potentiostatically in a volumetrically unbalanced compositionally-symmetric cell configuration.\nPotentiostatic symmetric cell cycling was performed according to a reported procedure^8 in order to assess the temporal chemical stability of DBEAQ, independent of any variations in apparent capacity as a result of changes to membrane resistance, and in a configuration where there is negligible water or reactant crossover due to the same DBEAQ concentration being used in both electrolytes. […] 5 mL of the resulting electrolyte was used as the capacity-limiting side of a volumetrically unbalanced compositionally-symmetric cell, while the remaining 10 mL was used as the non-capacity-limiting side, i.e., with twice the nominal capacity of the capacity-limiting side. […].\nThe cycling stability of the DPPEAQ electrolyte was also studied by a previously published symmetric cell method.^24 Although the oxidized form of DPPEAQ is readily soluble at pH 9, proton-coupled electron transfer raises the pH of the electrolyte when it is reduced. Such pH fluctuations can produce misleading results in symmetric cell testing unless the starting pH is above the cutoff point for proton-coupled electron transfer."}},
  "note": "Read-outs that look alike come from different tables or passages of the source.",
  "data": [
    {"compound": "O=C([O-])CCCOc1ccc2c(c1)C(=O)c1ccc(OCCCC(=O)[O-])cc1C2=O.[K+].[K+]", "note": "[2,6-DBEAQ, 4,4′-((9,10-anthraquinone-2,6-diyl)dioxy)dibutyric acid]", "values": [
      {"measurement": "Maximum Solubility", "setting": "physchem; KOH, pH 12", "result": 600, "unit": "mM"},
      {"measurement": "solubility", "setting": "physchem; pH 9, aqueous buffer, pH 9, read-out: solubility", "result": "< 0.035", "unit": "M"},
      {"measurement": "solubility", "setting": "physchem; pH 12, aqueous buffer, KOH, pH 12, read-out: Maximum Solubility", "result": "> 0.5", "unit": "M"},
      {"measurement": "solubility", "setting": "physchem; pH 12, aqueous buffer, pH 12 (value in brackets), read-out: Solubility (M) at pH 14 (pH 12)", "result": 0.6, "unit": "M"},
      {"measurement": "solubility", "setting": "physchem; pH 14, aqueous buffer, KOH, pH 14, read-out: Maximum Solubility", "result": "> 1", "unit": "M"},
      {"measurement": "solubility", "setting": "physchem; pH 14, aqueous buffer, pH 14 (value outside brackets), read-out: Solubility (M) at pH 14 (pH 12)", "result": 1.1, "unit": "M"},
      {"measurement": "upper limit of capacity fade rate caused by decomposition and/or membrane crossover", "setting": "[1]", "result": "≤ 0.01", "unit": "%/day"},
      {"measurement": "temporal capacity fade rate", "setting": "[2]; pH 14 (1 M KOH), 0.10 M (2,6-DBEAQ also 0.65 M)", "result": "< 0.01", "unit": "%/day"},
      {"measurement": "temporal capacity fade rate", "setting": "[2]; pH 14, 0.10 and 0.65 M", "result": "< 3.0", "unit": "%/year"}
    ]}
  ]
}
